Tests used:
[1] = target: T1, Mitogen-activated protein kinase kinase kinase 5 (Homo sapiens) (UniProt Q99683); test: Selectivity interaction (KinomeScan (DiscoverX)) EUB0000607a MAP3K5; conditions: at 10 µM
T1 sequence (whole entry): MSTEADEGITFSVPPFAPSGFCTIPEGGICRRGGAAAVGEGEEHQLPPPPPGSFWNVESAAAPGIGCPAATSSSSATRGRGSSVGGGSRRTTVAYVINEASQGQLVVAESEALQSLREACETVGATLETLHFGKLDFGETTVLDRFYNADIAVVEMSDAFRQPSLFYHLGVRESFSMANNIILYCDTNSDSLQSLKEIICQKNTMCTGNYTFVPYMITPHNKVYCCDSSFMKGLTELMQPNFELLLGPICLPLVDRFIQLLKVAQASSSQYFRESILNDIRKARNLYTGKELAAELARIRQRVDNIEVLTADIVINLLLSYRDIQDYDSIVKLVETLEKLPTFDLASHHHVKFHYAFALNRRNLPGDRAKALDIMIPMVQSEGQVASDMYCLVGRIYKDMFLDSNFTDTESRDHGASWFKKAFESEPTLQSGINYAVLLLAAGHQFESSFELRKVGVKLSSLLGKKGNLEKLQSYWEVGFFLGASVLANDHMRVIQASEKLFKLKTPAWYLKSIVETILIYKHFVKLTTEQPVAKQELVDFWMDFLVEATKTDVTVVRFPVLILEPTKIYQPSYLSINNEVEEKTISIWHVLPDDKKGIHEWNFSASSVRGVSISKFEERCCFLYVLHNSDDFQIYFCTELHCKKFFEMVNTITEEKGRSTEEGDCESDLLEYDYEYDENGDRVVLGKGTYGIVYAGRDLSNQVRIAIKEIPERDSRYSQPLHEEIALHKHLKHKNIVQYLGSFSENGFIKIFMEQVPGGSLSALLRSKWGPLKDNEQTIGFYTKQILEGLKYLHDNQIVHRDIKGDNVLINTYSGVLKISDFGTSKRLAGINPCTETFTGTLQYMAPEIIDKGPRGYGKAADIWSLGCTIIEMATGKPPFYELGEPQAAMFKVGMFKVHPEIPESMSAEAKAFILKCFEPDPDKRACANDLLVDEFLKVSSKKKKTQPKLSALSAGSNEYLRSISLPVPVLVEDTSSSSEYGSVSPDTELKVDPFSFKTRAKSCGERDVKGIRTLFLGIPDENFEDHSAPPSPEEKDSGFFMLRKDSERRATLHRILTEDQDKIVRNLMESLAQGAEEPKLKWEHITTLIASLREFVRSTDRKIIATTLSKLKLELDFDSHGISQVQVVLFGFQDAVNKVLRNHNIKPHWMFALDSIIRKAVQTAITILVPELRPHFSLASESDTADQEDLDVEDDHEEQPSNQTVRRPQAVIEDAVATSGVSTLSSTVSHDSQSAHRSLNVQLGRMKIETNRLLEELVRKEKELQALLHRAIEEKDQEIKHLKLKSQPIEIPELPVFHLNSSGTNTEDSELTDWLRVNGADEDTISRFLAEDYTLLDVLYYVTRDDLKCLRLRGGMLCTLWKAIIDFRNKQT

[2] = target: Acetylcholine receptor subunit alpha (Homo sapiens, UniProt P02708); test: Selectivity interaction (Panel of kinases, GPCRs, ion channels and transporters (enzymatic assay)) EUB0000266bCl CHRNA1
Chain of Acetylcholine receptor subunit alpha (P02708 whole entry): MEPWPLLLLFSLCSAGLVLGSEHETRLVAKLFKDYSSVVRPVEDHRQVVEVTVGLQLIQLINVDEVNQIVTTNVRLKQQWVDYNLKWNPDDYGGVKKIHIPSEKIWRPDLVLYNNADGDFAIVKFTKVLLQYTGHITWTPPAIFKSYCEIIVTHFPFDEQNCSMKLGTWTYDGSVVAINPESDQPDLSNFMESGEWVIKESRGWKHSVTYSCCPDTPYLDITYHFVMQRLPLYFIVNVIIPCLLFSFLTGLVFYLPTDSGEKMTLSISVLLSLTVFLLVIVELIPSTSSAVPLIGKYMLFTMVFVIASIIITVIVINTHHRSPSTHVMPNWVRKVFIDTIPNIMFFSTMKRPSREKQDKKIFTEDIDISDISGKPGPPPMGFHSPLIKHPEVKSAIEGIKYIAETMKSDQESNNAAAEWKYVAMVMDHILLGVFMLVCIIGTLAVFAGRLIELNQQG

[3] = Selectivity interaction (Ambit KINOMEscan and KiNATiv profiling in Jurkat cells) EUB0000090b PKNB; conditions: Selectivity number of off-targets 9; Selectivity number of targets 456; Source Knowledge https://www.nature.com/articles/nchembio.2166; at 1 µM
[4] = target: Platelet-derived growth factor receptor beta (Homo sapiens, UniProt P09619); test: Selectivity interaction (KinomeScan (DiscoverX)) EUB0000092b PDGFRB; conditions: at 10 µM
Chain of Platelet-derived growth factor receptor beta (P09619 whole entry): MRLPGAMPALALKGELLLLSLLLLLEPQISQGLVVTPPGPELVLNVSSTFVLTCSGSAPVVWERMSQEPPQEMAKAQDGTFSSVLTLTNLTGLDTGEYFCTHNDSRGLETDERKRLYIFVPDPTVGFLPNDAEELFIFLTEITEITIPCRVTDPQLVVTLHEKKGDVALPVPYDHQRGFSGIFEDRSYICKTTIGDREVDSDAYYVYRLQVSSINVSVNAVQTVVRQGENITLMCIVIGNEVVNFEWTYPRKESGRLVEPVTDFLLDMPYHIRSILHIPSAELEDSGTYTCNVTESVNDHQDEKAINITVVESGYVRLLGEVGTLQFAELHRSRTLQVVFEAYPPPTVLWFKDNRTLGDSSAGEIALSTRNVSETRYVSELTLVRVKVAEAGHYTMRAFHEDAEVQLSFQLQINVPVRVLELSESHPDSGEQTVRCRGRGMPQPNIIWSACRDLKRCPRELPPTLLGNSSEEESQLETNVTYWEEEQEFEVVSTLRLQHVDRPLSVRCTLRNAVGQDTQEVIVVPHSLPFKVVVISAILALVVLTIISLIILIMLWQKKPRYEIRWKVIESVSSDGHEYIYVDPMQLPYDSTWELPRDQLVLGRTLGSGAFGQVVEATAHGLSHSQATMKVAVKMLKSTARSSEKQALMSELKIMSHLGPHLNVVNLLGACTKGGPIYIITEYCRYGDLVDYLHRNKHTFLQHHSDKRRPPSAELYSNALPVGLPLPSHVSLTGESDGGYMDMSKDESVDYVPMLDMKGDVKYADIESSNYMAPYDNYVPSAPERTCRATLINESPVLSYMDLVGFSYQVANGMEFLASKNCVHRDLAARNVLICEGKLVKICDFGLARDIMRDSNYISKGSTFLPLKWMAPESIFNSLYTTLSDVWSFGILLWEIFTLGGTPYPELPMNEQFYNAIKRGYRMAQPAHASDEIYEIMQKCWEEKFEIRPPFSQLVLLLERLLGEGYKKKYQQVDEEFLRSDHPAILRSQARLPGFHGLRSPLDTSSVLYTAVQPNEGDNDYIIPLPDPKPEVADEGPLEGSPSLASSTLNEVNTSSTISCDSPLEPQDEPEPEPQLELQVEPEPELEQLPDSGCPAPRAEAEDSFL

[5] = target: MAP kinase-activated protein kinase 2 (Homo sapiens, UniProt P49137); conditions: at 10 µM
Chain of MAP kinase-activated protein kinase 2 (P49137 whole entry, looked up): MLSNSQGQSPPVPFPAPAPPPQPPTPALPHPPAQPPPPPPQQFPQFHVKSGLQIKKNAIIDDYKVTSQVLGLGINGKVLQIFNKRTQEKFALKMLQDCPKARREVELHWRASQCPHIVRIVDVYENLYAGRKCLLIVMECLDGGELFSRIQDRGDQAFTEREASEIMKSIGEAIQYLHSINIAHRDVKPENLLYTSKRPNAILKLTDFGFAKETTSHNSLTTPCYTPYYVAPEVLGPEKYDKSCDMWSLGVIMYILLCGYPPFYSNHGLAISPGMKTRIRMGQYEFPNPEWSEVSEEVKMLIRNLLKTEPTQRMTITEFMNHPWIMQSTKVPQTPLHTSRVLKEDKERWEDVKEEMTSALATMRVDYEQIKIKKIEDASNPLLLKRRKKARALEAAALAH

[6] = target: T2, Serine/threonine-protein kinase Nek9 (Homo sapiens) (UniProt Q8TD19); test: Selectivity interaction (ActivX KiNativ screen (ex vivo kinase selectivity in human PBMCs)) EUB0001619a NEK9; type: cell-based; conditions: PBMC, at 1 µM
T2 sequence (whole entry): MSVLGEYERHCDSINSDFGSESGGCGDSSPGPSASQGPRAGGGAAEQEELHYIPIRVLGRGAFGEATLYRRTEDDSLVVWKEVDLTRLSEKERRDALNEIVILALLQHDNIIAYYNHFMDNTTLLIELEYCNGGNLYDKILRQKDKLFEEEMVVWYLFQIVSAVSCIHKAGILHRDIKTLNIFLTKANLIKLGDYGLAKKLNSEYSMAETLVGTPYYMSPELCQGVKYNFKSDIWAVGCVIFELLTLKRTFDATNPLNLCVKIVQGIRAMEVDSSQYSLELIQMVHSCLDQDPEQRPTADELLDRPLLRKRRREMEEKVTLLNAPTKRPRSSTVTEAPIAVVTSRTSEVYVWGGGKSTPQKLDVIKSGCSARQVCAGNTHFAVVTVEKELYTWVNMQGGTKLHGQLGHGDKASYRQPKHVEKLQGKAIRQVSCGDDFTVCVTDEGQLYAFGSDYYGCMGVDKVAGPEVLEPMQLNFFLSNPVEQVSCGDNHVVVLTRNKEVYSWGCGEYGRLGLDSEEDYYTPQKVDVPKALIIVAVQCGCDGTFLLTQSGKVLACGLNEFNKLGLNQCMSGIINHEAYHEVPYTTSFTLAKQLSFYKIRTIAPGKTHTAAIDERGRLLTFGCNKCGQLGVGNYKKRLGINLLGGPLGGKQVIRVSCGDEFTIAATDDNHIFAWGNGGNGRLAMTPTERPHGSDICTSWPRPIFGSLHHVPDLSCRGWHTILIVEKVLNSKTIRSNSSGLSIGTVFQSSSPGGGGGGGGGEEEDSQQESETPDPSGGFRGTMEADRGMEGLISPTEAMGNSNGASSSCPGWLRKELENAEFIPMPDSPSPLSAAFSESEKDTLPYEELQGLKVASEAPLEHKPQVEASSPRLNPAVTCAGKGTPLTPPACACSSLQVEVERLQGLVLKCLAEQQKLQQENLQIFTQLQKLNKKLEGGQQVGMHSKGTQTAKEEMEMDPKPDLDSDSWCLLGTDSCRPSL

With `CNC(=O)Nc1ccc(-c2nc(N3CC4CCC(C3)O4)c3cnn(C4CCC5(CC4)OCCO5)c3n2)cc1` the % of control [1] was 85%.

For `CCn1c(-c2nc3cc(C(=O)N4CCCC(N)C4)ccc3n2C)cc2ccccc21` (stereo unspecified), the pXC50 [2] was < 4.3 M.

For `CN(C)C/C=C/C(=O)Nc1ccc(C(=O)N2CCCC(Nc3ncc(Cl)c(-c4c[nH]c5ccccc45)n3)C2)cc1` (stereo unspecified), the “% of control” value [3] was 38%.

With `CCC(=O)N1CCN(c2ccc(-n3c(=O)ccc4cnc5ccc(-c6cnc7ccccc7c6)cc5c43)cc2C(F)(F)F)CC1` the % of control [4] was 24%.

Work on `Cc1cc([C@@H](C)Nc2ccccc2C(=O)O)c2nc(N3CCOCC3)cc(=O)n2c1` [AZD-6482] yielded a % of control [5] of 66%.

Compound `N#Cc1cccc(-c2c[nH]c3ncnc(N4CCOCC4)c23)c1` has a % of inhibition [6] of 1%.
